{
  "source": "patent US10583119B2",
  "about": "“Compounds, compositions and methods for making the same” (Signum Biosciences, Inc., priority 2008, dated 2020)",
  "tested_on": "MPTP Mouse Model of Parkinson's Disease",
  "assay": "MPTP-induced neurotoxicity in MPTP mouse model of Parkinson's disease (striatal tyrosine hydroxylase ELISA)",
  "assay_type": "in vivo, C57BL/6J mice",
  "conditions": "acute MPTP 10 mg/kg four times, striatum",
  "from_the_text": "MPTP (1-methyl-4-phenyl-1,2,3,6-tetrahydropyridine) is routinely used as a chemical agent that induces Parkinson's disease-like neurodegeneration in cellular and animal models. Both Parkinson's Disease and MPTP-induced neurotoxicity are associated with a number of different biomarkers including reduction of tyrosine hydroxylase levels and activity. Tyrosine hydroxylase is a key enzyme in the dopamine biosynthesis pathway as it is involved in the conversion of tyrosine to […]. Tyrosine hydroxylase activity is regulated by its phosphorylation status and PP2A is known to be involved in this regulation.\nC57BL/6J mice, aged 2-3 months were fed ad libitum, either standard rodent chow (Control), or rodent chow formulated with 0.1 g Compound I-63, or 0.001 g Compound I-63 per 100 g chow (0.1% and 0.001% Compound I-63, respectively); water was changed weekly. Mice were housed at 23° C., on a 12 hour light and dark cycle, with 6 mice per cage. After 2 weeks, 8-12 mice each from the Control, 0.1% Compound 1-63 and 0.001% Compound I-63 groups were injected with either saline, or 10 mg/kg MPTP i.e., four times, every 2 hours, on the same day. Mice were then maintained on their respective feeds for another week, at which point they were sacrificed by cervical dislocation and brains dissected for biochemical analyses.\nStriatal tyrosine hydroxylase (TH) content was measured by ELISA as follows. Ninety-six well microliter plates (Thermo Labsystems) were incubated overnight at 4° C. with monoclonal anti-TH antibody (1:500; Calbiochem) in 8 mM sodium phosphate, 2 mM potassium phosphate, and 0.14 M sodium chloride, pH 7.4 (PBS). Wells were washed four times with PBS and then blocked for 1 hour using 5% (w/v) Carnation (Nestle) nonfat dry milk in PBS. Striatal tissue samples were homogenized by sonication in PBS-0.5% Triton X-100 (PBST) with 0.25% (w/v) SDS. […] The reaction product was measured fluorometrically within the linear range of detection (excitation:emission ratio of 530:580 nm). […] Data were expressed as percent TH levels in MPTP-treated mice relative to saline-injected mice. […]",
  "data": [
    {"smiles": "CCCCCCCCCCCCCCCCCCCC(=O)NCCc1c[nH]c2ccc(O)cc12", "note": "[Compound I-63, N-(2-(5-hydroxy-1H-indol-3-yl)ethyl)icosanamide]", "values": [
      {"measurement": "rescuing of the tyrosine hydroxylase defect", "setting": "0.001% diet", "value": "approximately 20%"},
      {"measurement": "rescuing of the tyrosine hydroxylase defect", "setting": "0.1% diet", "value": "approximately 20%"}
    ]}
  ]
}
